Assay results: patent US9834542B2, “LXR modulators” (BRISTOL-MYERS SQUIBB COMPANY, priority 2013, dated 2017)

Molecular target: T1, LXRβ (Homo sapiens, UniProt P55055)
T1 construct: Co-transfection expression plasmids, comprising full-length LXRα (pCMX-h LXRα[…] or LXRβ (pCMX-hLXRβ)); expressed in transfected cells; host or cells: CV-1 African Green Monkey Kidney Cells
T1 sequence (P55055 1-460): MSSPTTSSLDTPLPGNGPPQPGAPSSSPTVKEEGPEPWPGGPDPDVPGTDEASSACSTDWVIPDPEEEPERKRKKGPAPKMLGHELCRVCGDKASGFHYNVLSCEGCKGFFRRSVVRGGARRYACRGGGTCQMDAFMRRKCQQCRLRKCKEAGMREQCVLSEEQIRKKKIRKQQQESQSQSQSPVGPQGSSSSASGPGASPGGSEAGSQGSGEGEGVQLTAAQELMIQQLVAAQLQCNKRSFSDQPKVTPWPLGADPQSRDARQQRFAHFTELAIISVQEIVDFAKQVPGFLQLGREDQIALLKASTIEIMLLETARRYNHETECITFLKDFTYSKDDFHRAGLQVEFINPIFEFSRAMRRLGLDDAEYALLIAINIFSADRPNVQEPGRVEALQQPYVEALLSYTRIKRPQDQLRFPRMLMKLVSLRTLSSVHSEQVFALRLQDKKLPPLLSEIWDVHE
T1 sequence (P19793 1-462 partner): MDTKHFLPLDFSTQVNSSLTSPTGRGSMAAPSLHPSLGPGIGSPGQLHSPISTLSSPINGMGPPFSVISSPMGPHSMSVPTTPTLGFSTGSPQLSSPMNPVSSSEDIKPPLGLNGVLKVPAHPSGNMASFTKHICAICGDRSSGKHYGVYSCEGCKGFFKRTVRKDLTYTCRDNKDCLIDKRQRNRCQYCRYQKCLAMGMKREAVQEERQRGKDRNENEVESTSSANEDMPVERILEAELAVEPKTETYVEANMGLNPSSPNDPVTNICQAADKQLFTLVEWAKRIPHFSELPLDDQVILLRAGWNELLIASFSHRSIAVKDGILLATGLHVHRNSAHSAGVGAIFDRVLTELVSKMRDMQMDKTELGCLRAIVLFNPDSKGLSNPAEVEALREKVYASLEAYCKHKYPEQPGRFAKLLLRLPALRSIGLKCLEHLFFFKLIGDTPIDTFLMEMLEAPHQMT
Assay: Co-transfection assay (LXRE luciferase reporter), LXRβ
Assay type: cell-based
Conditions: for EC50: CV-1 cells transfected with pCMX-hLXRβ and LXREx1-Tk-Luciferase, 20 hours incubation; for Emax: LXRβ co-transfection, relative to high control 1-(2,4-difluorobenzyl)-2-oxo-6-(4-phenoxyphenyl)-4-(trifluoromethyl)-1,2-dihydropyridine-3-carbonitrile, read-out: % Efficacy
How it was run: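 CV-1 cells transiently co-transfected with full-length human LXRβ (or LXRα), LXREx1-Tk-luciferase reporter and β-galactosidase control; compound added (10 μM final in single-point, 11-point ½-log curves, ≤0.5% DMSO) for 20 h at 37 °C. Luciferase read; EC50 from four-parameter fit, efficacy relative to reference agonist high control.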

EC50	Emax	Structure (SMILES)
74 nM	83%	Cc1nc(-c2cc(-c3cccc(S(=O)(=O)C4CC4)c3)ccc2-n2cc(C(F)(F)F)nc2C)c(-c2ccc(OC(F)F)c(F)c2)o1 [Example 429, 4-(3′-(cyclopropylsulfonyl)-4-(2-methyl-4-(trifluoromethyl)-1H-imidazol-1-yl)biphenyl-3-yl)-5-(4-(difluoromethoxy)-3-fluorophenyl)-2-methyloxazole]
280 nM	50%	CCOc1ncc(-c2oc(C)nc2-c2cc(-c3ccc(C)c(S(C)(=O)=O)c3)ccc2-n2cc(C(F)(F)F)nc2C)cc1F [Example 473, 5-(6-ethoxy-5-fluoropyridn-3-yl)-2-methyl-4-(4′-methyl-4-(2-methyl-4-(trifluoromethyl)-1H-imidazol-1-yl)-3′-(methylsulfonyl)biphenyl-3-yl)oxazole]
643 nM	64%	Cc1nc(C(F)(F)F)cn1-c1ccc(-c2cc(Cl)c(CO)c(S(C)(=O)=O)c2)cc1-n1nncc1Cc1ccc(Cl)cc1 [Example 122, (3-chloro-3′-{5-[(4-chlorophenyl)methyl]-1H-1,2,3-triazol-1-yl}-5-(methylsulfonyl)-4′-[2-methyl-4-(trifluoromethyl)-1H-imidazol-1-yl]biphenyl-4-yl)methanol]
40 nM	97%	Cc1nc(-c2cc(-c3cc(F)c(CO)c(S(C)(=O)=O)c3)ccc2-n2cc(C(F)(F)F)nc2C)c(-c2ccc(OC(F)(F)F)cc2)o1 [Example 373, [3-fluoro-5-(methylsulfonyl)-4′-[2-methyl-4-(trifluoromethyl)-1H-imidazol-1-yl]-3′-(2-methyl-5-{4-[(trifluoromethyl)oxy]phenyl}-1,3-oxazol-4-yl)biphenyl-4-yl]methanol]
865 nM	118%	CCc1nc(C(F)(F)F)cn1-c1ccc(-c2cccc(S(C)(=O)=O)c2)cc1-n1nncc1-c1ccc(OC(F)(F)F)cc1 [Example 227, 1-(4-(2-ethyl-4-(trifluoromethyl)-1H-imidazol-1-yl)-3′-(methylsulfonyl)-[1,1′-biphenyl]-3-yl)-5-(4-(trifluoromethoxy)phenyl)-1H-1,2,3-triazole]
351 nM	75%	Cc1nc(C(F)(F)F)cn1-c1ccc(-c2cc(F)c(CO)c(S(C)(=O)=O)c2)cc1-c1ccnn1-c1ccc(Cl)nc1 [Example 297, (3′-(1-(6-chloropyridin-3-yl)-1H-pyrazol-5-yl)-3-fluoro-4′-(2-methyl-4-(trifluoromethyl)-1H-imidazol-1-yl)-5-(methylsulfonyl)biphenyl-4-yl)methanol]
187 nM	53%	Cc1nc(-c2cc(-c3cccc(S(C)(=O)=O)c3)ccc2-n2cc(C(F)(F)F)nc2C)c(-c2ccc(OC(F)F)c(OC(F)F)c2)o1 [Example 392, 5-(3,4-bis(difluoromethoxy)ohenyl)-2-methyl-4-(4-(2-methyl-4-(trifluoromethyl)-1H-imidazol-1-yl)-3′-(methylsulfonyl)biphenyl-3-yl)oxazole]
431 nM	61%	Cc1nc(C(F)F)cn1-c1ccc(-c2cccc(S(=O)(=O)N(C)C)c2)cc1-n1nncc1C(C)c1ccc(Cl)cc1 (stereo not shown) [Example 132, 3′-{5-[1-(4-chlorophenyl)ethyl]-1H-1,2,3-triazol-1-yl}-4′-[4-(difluoromethyl)-2-methyl-1H-imidazol-1-yl]-N,N-dimethylbiphenyl-3-sulfonamide]
489 nM	90%	COCS(=O)(=O)c1cccc(-c2ccc(-n3cc(C(F)(F)F)nc3C)c(-n3nncc3-c3ccc(OC(F)(F)F)cc3)c2)c1 [Example 238, 1-(3′-((methoxymethyl)sulfonyl)-4-(2-methyl-4-(trifluoromethyl)-1H-imidazol-1-yl)-[1,1′-biphenyl]-3-yl)-5-(4-(trifluoromethoxy)phenyl)-1H-1,2,3-triazole]
48 nM	116%	Cc1nc(-c2cc(-c3cc(F)c(CO)c(S(C)(=O)=O)c3)ccc2-n2cc(C(F)(F)F)nc2C)c(-c2ccc(OC(F)F)cc2)o1 [Example 496, (3′-(5-(4-(difluoromethoxy)phenyl)-2-methyloxazol-4-yl)-3-fluoro-4′-(2-methyl-4-(trifluoromethyl)-1H-imidazol-1-yl)-5-(methylsulfonyl)biphenyl-4-yl)methanol]
1160 nM	55%	COc1ncc(F)cc1-c1oc(C)nc1-c1cc(-c2cccc(S(C)(=O)=O)c2)ccc1-n1cc(C(F)(F)F)nc1C [Example 400]
1380 nM	32%	Cc1nc(-c2cc(-c3cccc(S(C)(=O)=O)c3)ccc2-n2cc(C(F)(F)F)nc2C)c(-c2cccnc2OC(F)F)o1 [Example 388, 5-(2-(difluoromethoxy)pyridin-3-yl)-2-methyl-4-(4-(2-methyl-4-(trifluoromethyl)-1H-imidazol-1-yl)-3′-(methylsulfonyl)biphenyl-3-yl)oxazole]
30 nM	43%	Cc1cc(-c2cc(-c3cc(F)c(CO)c(S(C)(=O)=O)c3)ccc2-n2cc(C(F)(F)F)nc2C)n(-c2ccc(Cl)cc2)n1 [Example 290, {3′-[1-(4-chlorophenyl)-3-methyl-1H-pyrazol-5-yl]-3-fluoro-5-(methylsulfonyl)-4′-[2-methyl-4-(trifluoromethyl)-1H-imidazol-1-yl]biphenyl-4-yl}methanol]
46 nM	59%	Cc1nc(-c2cc(-c3cc(F)c(CO)c(S(C)(=O)=O)c3)ccc2-n2cc(Cl)nc2C)c(-c2ccc3c(c2)OC(F)(F)O3)o1 [Example 424, (4′-(4-chloro-2-methyl-1H-imidazol-1-yl)-3′-(5-(2,2-difluorobenzo[d][1,3]dioxol-5-yl)-2-methyloxazol-4-yl)-3-fluoro-5-(methylsulfonyl)biphenyl-4-yl)methanol]
37 nM	84%	Cc1nc(-c2ccc3c(c2)OC(F)(F)O3)c(-c2cc(-c3cc(F)c(CO)c(S(C)(=O)=O)c3)ccc2-n2cc(C(F)(F)F)nc2C)o1 [Example 617, (3′-(4-(2,2-difluorobenzo[d][1,3]dioxol-5-yl)-2-methyloxazol-5-yl)-3-fluoro-4′-(2-methyl-4-(trifluoromethyl)-1H-imidazol-1-yl)-5-(methylsulfonyl)-[1,1′-biphenyl]-4-yl)methanol]
306 nM	98%	Cc1nc(C(F)(F)F)cn1-c1ccc(-c2cccc(S(C)(=O)=O)c2)cc1-n1nncc1-c1ccc(Cl)cc1 [Example 66, 5-(4-chlorophenyl)-1-{3′-(methylsulfonyl)-4-[2-methyl-4-(trifluoromethyl)-1H-imidazol-1-yl]biphenyl-3-yl}-1H-1,2,3-triazole]
677 nM	92%	CS(=O)(=O)c1cccc(-c2ccc(-n3cc(C(F)(F)F)nc3C(F)F)c(-n3nncc3-c3ccc(OC(F)(F)F)cc3)c2)c1 [Example 226, 1-(4-(2-(difluoromethyl)-4-(trifluoromethyl)-1H-imidazol-1-yl)-3′-(methylsulfonyl)-[1,1′-biphenyl]-3-yl)-5-(4-(trifluoromethoxy)phenyl)-1H-1,2,3-triazole]
341 nM	84%	Cc1nc(C(F)(F)F)cn1-c1ccc(-c2cccc(S(C)(=O)=O)c2)cc1-c1nc(C2CC2)cn1-c1ccc2c(c1)OC(F)(F)O2 [Example 643, 4-cyclopropyl-1-(2,2-difluorobenzo[d][1,3]dioxol-5-yl)-2-(4-(2-methyl-4-(trifluoromethyl)-1H-imidazol-1-yl)-3′-(methylsulfonyl)biphenyl-3-yl)-1H-imidazole]
205 nM	63%	CCS(=O)(=O)c1cccc(-c2ccc(-n3cc(C(F)(F)F)nc3C)c(-n3nncc3C(F)(F)c3ccc(Cl)cc3)c2)c1 [Example 142, 5-[(4-chlorophenyl)(difluoro)methyl]-1-{3′-(ethylsulfonyl)-4-[2-methyl-4-(trifluoromethyl)-1H-imidazol-1-yl]biphenyl-3-yl}-1H-1,2,3-triazole]
54 nM	101%	Cc1nc(-c2cc(-c3cc(F)c(CCO)c(S(C)(=O)=O)c3)ccc2-n2cc(C(F)(F)F)nc2C)c(-c2ccc(OC(F)(F)F)cc2)o1 [Example 529, 2-(3-fluoro-4′-(2-methyl-4-(trifluoromethyl)-1H-imidazol-1-yl)-3′-(2-methyl-5-(4-(trifluoromethoxy)phenyl)oxazol-4-yl)-5-(methylsulfonyl)-[1,1′-biphenyl]-4-yl)ethanol]
